Values after ≈ are worked out from the molar mass of the structure shown.
Assays:
KB [1] = test: Cytotoxicity (dichloromethane extract) was evaluated against KB tumor cell line; assay type: functional; conditions: Homo sapiens, read-out: ID50 (the source's name)
KB [2] = test: Cytotoxicity (extracted with dichloromethane-methanol) was evaluated against KB tumor cell line; assay type: functional; conditions: Homo sapiens, read-out: ID50 (the source's name)

## CC(C)CCC[C@@H](C)[C@H]1[C@@H](O)C[C@H]2[C@@H]3CC(=O)[C@H]4CC(=O)CC[C@]4(C)[C@H]3CC[C@]12C
KB [1]
  IC50: 5 µg/mL (≈ 12 µM)
KB [2]
  IC50: 0.5 µg/mL (≈ 1.2 µM)
